From US20250082781A1, “METHODS OF LOWERING BLOOD GLUCOSE AND TREATING TYPE 2 DIABETES BY ACTIVATION OF PDE4D3” (Salk Institute for Biological Studies, priority 2021, published 2025)

Tests used:
Format in all cases: in vivo, mouse
pyruvate carboxylase = test: Hepatic pyruvate carboxylase (Pcx) activity assay; conditions: HFD-fed adR1WT mice, FGF1 0.5 mg/kg
Description: Pcx activity was determined by malate dehydrogenase coupling method originally reported by Payne et al. (Payne and Morris, 1969). Briefly, mice were sacrificed by decapitation. Liver samples were rapidly frozen in liquid nitrogen within 5 seconds of excision designed to avoid loss of hepatic acetyl-CoA levels. Frozen liver samples were pulverized on dry ice and approximately 100 mg of tissues were homogenized with TissueLyzer in Pcx activity assay buffer (50 mM Tris pH8, 10 mM MgCl2, 10 mM NaHCO3). Homogenates were cleared by centrifugation at 14000 rpm for 10 minutes. Cleared supernatants were diluted in Pcx activity assay buffer to approximately 1 μg/ul. Approximately 5 μg protein was loaded onto 96-well plates and the total volume was brought up to 20 ul by Pcx activity assay buffer. Absorbance at 340 nm was monitored every 9 seconds at 37° C. immediately after the addition of 80 ul Pcx reaction buffer (50 mM Tris pH8, 10 mM MgCl2, 10 mM NaHCO3, 6.25 mM ATP, 0.125 mM NADH, 2.5 mM pyruvate, malate dehydrogenase 0.025 U/ml in Pcx activity assay buffer). Pcx activity was determined as the loss of absorbance at 340 nm over time normalized to protein concentration.

blood glucose levels = test: Blood glucose levels in ob/ob mice
Description: Mice were kept in 12 h light/dark cycle in a temperature-controlled environment. Mice had free access to food and water unless noted otherwise. C57/B6 mice background was used unless noted otherwise. C57BL/6J and ob/ob (000632-B6. Cg-Lepob/J) male mice were obtained from Jackson Laboratory. PDE4D knock-out mice (034588-UCD) were obtained from MMRRC. For diet-induced obesity (DIO) studies, mice were fed a high fat diet (HFD) (60% fat, F3282; Bio-Serv) for minimum of 12 weeks to induce insulin resistance when diet-induced obese model is used. Insulin levels and blood glucose levels were monitored to confirm insulin resistance. To generate adipose-specific FGFR1 deletion, adiponectin-cre mice (B6; FVB-Tg (Adipoq-cre)1Evdr/J; Stock: 010803) were crossed to Fgfr1 flox/flox (B6.129S4-Fgfr1tm5.1Sor/J; Stock: 00767) mice. For AAV mediated expression of target proteins in adipose tissue, 5×10E+11 genomic copies of AAV were injected via tail vein or retro-orbital route.
Recombinant FGF1 (rFGF1) was dissolved in phosphate-buffered saline (PBS) at a concentration of 0.2 mg/ml and was injected subcutaneously at a 0.5 mg kg^−1 dose. Blood glucose was monitored at indicated time points after injection. For initial measurements (2-4 h) food was removed after injection to exclude any indirect effects stemming from anorexigenic effects of FGF1. PDE4 inhibitor roflumilast stock in DMSO was diluted at 1 mg/ml in 30% captisol, pH 10 and delivered to mice thorough oral gavage at 5 mg kg^−1 dose. PDE3 inhibitor cilostamide stock in DMSO was diluted at 2 mg/ml in 30% captisol and delivered through intraperitoneal injection at 10 mg kg^−1 dose.

hepatic β-oxidation = test: β-oxidation assay of hepatic mitochondria; conditions: ob/ob mice 14 h after FGF1 injection
Description: FIGS. 8A-8E: FGF1 decreases hepatic glucose production via controlling metabolic flux to gluconeogenesis. (FIG. 8A) Pyruvate tolerance test (PTT) (left panel) and glycerol tolerance test (Glycerol TT) of overnight-fasted DIO mice 2 h after vehicle (n=6) or FGF1 (n=7) injection (0.5 mg/kg). Data are represented as mean±SEM (*p<0.05, **p<0.01, ***p<0.001). (FIG. 8B) Schematic diagram showing the steps in hepatic glucose production. […] (FIG. 8C) Relative levels of the key metabolites involved in the citric acid cycle as measured by targeted metabolomic profiling. Data are represented as mean±SEM (vehicle n=5; FGF1 n=6). (FIG. 8D) Pyruvate carboxylase, PEPCK and G6Pase levels in livers of overnight fasted ob/ob mice 2 hours after injection of vehicle or FGF1, as measured by Western blot. Protein levels are normalized to actin for quantification (n=6/arm). (FIG. 8E) β-oxidation assay of hepatic mitochondria from ob/ob mice 14 h after Vehicle (PBS) or FGF1 injection. Mitochondria were incubated with BSA-conjugated ^14C palmitate, and released ^14C CO2 was measured by scintillation counting. Data are represented as mean±SEM (n=5/arm).

For “FGF1: Recombinant fibroblast growth factor 1 protein, dissolved in PBS, injected subcutaneously”, which “reduction in pyruvate carboxylase activity” value (pyruvate carboxylase) is on record?
Its value is roughly 50%.

What about the “blood glucose, FGF1 co-administered with atglistatin” value (blood glucose levels; ad lib fed ob/ob mice, FGF1 0.5 mg/kg + atglistatin 120 mg/kg) of the same substance?
Its value is “no additive effects”.

And the blood glucose (blood glucose levels; ad lib fed ob/ob mice, FGF1 0.5 mg/kg s.c. as single agent)?
Its blood glucose is “robustly lowered blood glucose”.

And the “FGF1-induced reduction in glucose levels in mice overexpressing PDE4D3” value (blood glucose levels; ob/ob mice with adAAV-PDE4D3, FGF1 0.5 mg/kg)?
Its value is “greater reduction in glucose levels”.

And the “FGF1 glucose response in mice expressing the S44A mutant” value (blood glucose levels; ob/ob mice with adAAV-PDE4D3 S44A, FGF1 0.5 mg/kg)?
The value was “indistinguishable from control mice”.

What about the “hepatic β-oxidation” value (hepatic β-oxidation) of the same substance?
The value was “absence of any change”.
